Reference: patent US8088806B2 (Achillion Pharmaceuticals, Inc., priority 2005, dated 2012)

tested on: HCV replicon; test: Replicon based assay of HCV replication inhibition (NPT ELISA); assay type: cell-based, Hepatitis C virus; details: Hepatitis C virus, replicon based assay of HCV replication inhibition; Table II; read-out: Activity
Summary of the method: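 Huh-7 cells carrying a bicistronic HCV replicon (neo, EMCV-IRES-driven NS3–NS5B) treated overnight after seeding with usually 6 concentrations, 10 to 0.03 micromolar, for three days at 37° C without G418. Replication read as NPT level by captured ELISA; matched-DMSO wells and interferon alpha as controls.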

| Compound | EC50 |
| --- | --- |
| CC/C=C\CCCCOc1ccc(Nc2nc(-c3ccc(F)cc3)cs2)cc1C(F)(F)F [compound 482, N-(4-((Z)-oct-5-enyloxy)-3-(trifluoromethyl)phenyl)-4-(4-fluorophenyl)thiazol-2-amine] | < 1000 nM |
| CCCCCCCc1ccc(Nc2nc(-c3cccnc3)cs2)cc1 [compound 483, N-(4-heptylphenyl)-4-(pyridin-3-yl)thiazol-2-amine] | < 1000 nM |
| CCCCCOc1ccc(Nc2nc3c(s2)Cc2ccccc2-3)cc1C(F)(F)F [compound 484, N-(3-(trifluoromethyl)-4-(pentyloxy)phenyl)-8H-indeno[1,2-d]thiazol-2-amine] | < 1000 nM |
| CCCCCCCCOc1ccc(Nc2nc3c(s2)Cc2ccccc2-3)cc1 [compound 485, N-(4-(octyloxy)phenyl)-8H-indeno[1,2-d]thiazol-2-amine] | < 1000 nM |
| CCCCCOc1ccc(Nc2nc(-c3ccc(F)nc3)cs2)cc1C(F)(F)F [compound 486, N-(3-(trifluoromethyl)-4-(pentyloxy)phenyl)-4-(6-fluoropyridin-3-yl)thiazol-2-amine] | < 1000 nM |
| CCCCCCCOc1ccc(Nc2nc(-c3ccc(F)nc3)cs2)cc1 [compound 487, 4-(6-fluoropyridin-3-yl)-N-(4-(heptyloxy)phenyl)thiazol-2-amine] | < 1000 nM |
| CCCCCCCCOc1ccc(Nc2nc(-c3ccc(F)nc3)cs2)cc1 [compound 488] | < 1000 nM |
| CCCCCCCCN(C)c1ccc(Nc2nc(-c3ccc(F)nc3)cs2)cc1C(F)(F)F [compound 489, 2-(trifluoromethyl)-N^4-(4-(6-fluoropyridin-3-yl)thiazol-2-yl)-N^1-methyl-N^1-octylbenzene-1,4-diamine] | < 1000 nM |
| CCCCCCCCc1ccc(Nc2nc(-c3ccc(F)nc3)cs2)cc1 [compound 490, 4-(6-fluoropyridin-3-yl)-N-(4-octylphenyl)thiazol-2-amine] | < 1000 nM |
| CCCCCCCCOc1ccc(Nc2nc(Cc3ccccc3)cs2)cn1 [compound 491, N-(4-benzylthiazol-2-yl)-6-(octyloxy)pyridin-3-amine] | 1000 to 10000 nM |
| CCCCCCCCN(C)c1ccc(Nc2nc(Cc3ccccc3)cs2)cc1C(F)(F)F [compound 492, N^4-(4-benzylthiazol-2-yl)-2-(trifluoromethyl)-N^1-methyl-N^1-octylbenzene-1,4-diamine] | 1000 to 10000 nM |
| CCCCCCCCN(C)c1ccc(Nc2nc(Cc3ccccc3)cs2)cc1 [compound 493, N^1-(4-benzylthiazol-2-yl)-N^4-methyl-N^4-octylbenzene-1,4-diamine] | 1000 to 10000 nM |
| Fc1ccc(-c2csc(Nc3ccc(OCCCC4CCCC4)c(C(F)(F)F)c3)n2)cc1 [compound 494, N-(4-(3-cyclopentylpropoxy)-3-(trifluoromethyl)phenyl)-4-(4-fluorophenyl)thiazol-2-amine] | < 1000 nM |
| FC(F)(F)c1cc(Nc2nc(-c3cccnc3)cs2)ccc1OCCCC1CCCC1 [compound 495, N-(4-(3-cyclopentylpropoxy)-3-(trifluoromethyl)phenyl)-4-(pyridin-3-yl)thiazol-2-amine] | < 1000 nM |
| Cc1ccc(-c2csc(Nc3ccc(OCCCC4CCCC4)c(C(F)(F)F)c3)n2)cn1 [compound 496, N-(4-(3-cyclopentylpropoxy)-3-(trifluoromethyl)phenyl)-4-(6-methylpyridin-3-yl)thiazol-2-amine] | < 1000 nM |
| CCCCCCCCOc1ccc(Nc2nc(Cc3cccnc3)cs2)cn1 [compound 497, 6-(octyloxy)-N-(4-((pyridin-3-yl)methyl)thiazol-2-yl)pyridin-3-amine] | 1000 to 10000 nM |
| CCCCCCCCOc1ccc(Nc2nc(Cc3cccc(F)c3)cs2)cn1 [compound 498, N-(4-(3-fluorobenzyl)thiazol-2-yl)-6-(octyloxy)pyridin-3-amine] | 1000 to 10000 nM |

| Compound | EC50 |
| --- | --- |
| CCCCCCCCN(C)c1ccc(Nc2nc(Cc3cccc(F)c3)cs2)cc1 [compound 499, N^1-(4-(3-fluorobenzyl)thiazol-2-yl)-N^4-methyl-N^4-octylbenzene-1,4-diamine] | 1000 to 10000 nM |
| CCCCCCCCN(C)c1ccc(Nc2nc(Cc3cccnc3)cs2)cc1C(F)(F)F [compound 500, 2-(trifluoromethyl)-N^1-methyl-N^1-octyl-N^4-(4-((pyridin-3-yl)methyl)thiazol-2-yl)benzene-1,4-diamine] | < 1000 nM |
| CCCCCCCCOc1ccc(Nc2nc(Cc3cccnc3)cs2)cc1 [compound 501, N-(4-(octyloxy)phenyl)-4-((pyridin-3-yl)methyl)thiazol-2-amine] | 1000 to 10000 nM |
| CCCCCCCCN(C)c1ccc(Nc2nc(Cc3cccnc3)cs2)cc1 [compound 503, N^1-methyl-N^1-octyl-N^4-(4-((pyridin-3-yl)methyl)thiazol-2-yl)benzene-1,4-diamine] | > 10000 nM |
| CCCCCCCc1ccc(Nc2nc(Cc3cccnc3)cs2)cc1 [compound 504, N-(4-heptylphenyl)-4-((pyridin-3-yl)methyl)thiazol-2-amine] | 1000 to 10000 nM |
| CCCCCOc1ccc(Nc2nc(-c3cncnc3)cs2)cc1C(F)(F)F [compound 505, N-(3-(trifluoromethyl)-4-(pentyloxy)phenyl)-4-(pyrimidin-5-yl)thiazol-2-amine] | < 1000 nM |
| Fc1cc(Nc2nc(-c3cncnc3)cs2)ccc1OCC1CCCCC1 [compound 506, N-(4-(cyclohexylmethoxy)-3-fluorophenyl)-4-(pyrimidin-5-yl)thiazol-2-amine] | < 1000 nM |
| CCCCCCCCOc1ccc(Nc2nc(-c3cncnc3)cs2)cc1 [compound 507, N-(4-(octyloxy)phenyl)-4-(pyrimidin-5-yl)thiazol-2-amine] | < 1000 nM |
| Cc1ccc(-c2csc(Nc3ccc(OCC4CCCCC4)c(F)c3)n2)cn1 [compound 508, N-(4-(cyclohexylmethoxy)-3-fluorophenyl)-4-(6-methylpyridin-3-yl)thiazol-2-amine] | < 1000 nM |
| Fc1ccc(-c2csc(Nc3ccc(OCC4CCCCC4)c(F)c3)n2)cc1 [compound 509, N-(4-(cyclohexylmethoxy)-3-fluorophenyl)-4-(4-fluorophenyl)thiazol-2-amine] | < 1000 nM |
| CCCCCOc1ccc(Nc2nc(-c3ccc(C#N)nc3)cs2)cc1C(F)(F)F [compound 510, 5-(2-(3-(trifluoromethyl)-4-(pentyloxy)phenylamino)thia-zol-4-yl)pyridin-2-carbonitrile] | < 1000 nM |
| N#Cc1ccc(-c2csc(Nc3ccc(OCC4CCCCC4)c(F)c3)n2)cn1 [compound 511, 5-(2-(4-(cyclohexylmethoxy)-3-fluorophenylamino)thiazol-4-yl)pyridine-2-carbonitrile] | > 10000 nM |
| CCCCCCCCOc1ccc(Nc2nc(-c3ccc(C#N)nc3)cs2)cc1 [compound 512, 5-(2-(4-(octyloxy)phenylamino)thia-zol-4-yl)pyridine-2-carbonitrile] | < 1000 nM |
| CCCCCCCCOc1ccc(Nc2nc(Cc3ccccc3)cs2)cc1 [compound 513, 4-benyl-N-(4-(octyloxy)phenyl)thiazol-2-amine] | > 10000 nM |
| CCCCCOc1ccc(Nc2nc(Cc3ccccc3)cs2)cc1C(F)(F)F [compound 514, 4-benzyl-N-(3-(trifluoromethyl)-4-(pentyloxy)phenyl)thiazol-2-amine] | > 10000 nM |
| CCCCCCCc1ccc(Nc2nc(Cc3ccccc3)cs2)cc1 [compound 515, 4-benzyl-N-(4-heptylphenyl)thiazol-2-amine] | > 10000 nM |
